Structures can show the parent of a compound that is named as a salt.

For this experiment, the target named is T1, human V1a receptor (Homo sapiens, UniProt P37288).
T1 construct: expressed in transfected cells; host or cells: HEK293 cells, transiently transfected; membranes prepared
T1 sequence (P37288 whole entry): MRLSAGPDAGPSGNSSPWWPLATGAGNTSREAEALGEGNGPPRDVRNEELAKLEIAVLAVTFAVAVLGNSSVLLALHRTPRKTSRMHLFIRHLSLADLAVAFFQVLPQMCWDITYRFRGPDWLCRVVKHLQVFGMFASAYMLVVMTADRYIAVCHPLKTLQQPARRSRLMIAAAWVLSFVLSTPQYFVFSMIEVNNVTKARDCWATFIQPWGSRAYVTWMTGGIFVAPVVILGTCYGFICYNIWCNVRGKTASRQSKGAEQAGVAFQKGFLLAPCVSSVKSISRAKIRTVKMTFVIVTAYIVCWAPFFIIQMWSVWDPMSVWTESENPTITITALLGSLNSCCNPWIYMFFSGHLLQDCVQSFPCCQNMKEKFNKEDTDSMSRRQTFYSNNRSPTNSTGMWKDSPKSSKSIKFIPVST
The experiment in a line: human V1a receptor binding (3H-Vasopressin SPA, HEK293 membranes). Particulars: membranes of HEK293 cells transiently transfected with human V1a receptor, Ki by Cheng-Prussoff, read-out: pKi (hV1a) (converted). How it is done:
The human V1a receptor was cloned by RT-PCR from total human liver RNA. The coding sequence was subcloned in an expression vector after sequencing to confirm the identity of the amplified sequence. […] Cell membranes were prepared from HEK293 cells transiently transfected with the expression vector and grown in 20 liter fermenters with the following protocol.
50 g of cells are resuspended in 30 ml freshly prepared ice cold Lysis buffer (50 mM HEPES, 1 mM EDTA, 10 mM magnesium dichloride adjusted to pH=7.4+complete cocktail of protease inhibitor (Roche Diagnostics)). Homogenized with Polytron for 1 min and sonicated on ice for 2×2 minutes at 80% intensity (Vibracell sonicator). The preparation is centrifuged 20 min at 500 g at 4° C., the pellet is discarded and the supernatant centrifuged 1 hour at 43,000 g at 4° C. (19,000 rpm). The pellet is resuspended in 12.5 ml Lysis buffer+12.5 ml sucrose 20% and homogenized using a Polytron for 1-2 min. The protein concentration is determined by the Bradford method and aliquots are stored at −80° C. until use. For binding studies 60 mg Yttrium silicate SPA beads (Amersham®) are mixed with an aliquot of membrane in binding buffer (50 mM Tris, 120 mM sodium chloride, 5 mM potassium chloride, 2 mM calcium dichloride, 10 mM magnesium dichloride) for 15 minutes with mixing. 50 μl of bead/membrane mixture is then added to each well of a 96 well plate, followed by 50 μl of 4 nM 3H-Vasopressin (American Radiolabeled Chemicals). For total binding measurement 100 μl of binding buffer are added to the respective wells, for non-specific binding 100 μl of 8.4 mM cold vasopressin and for compound testing 100 μl of a serial dilution of each compound in 2% dimethyl sulfoxide. The plate is incubated 1 h at room temperature, centrifuged 1 min at 1000 g and counted on a Packard Top-Count. Non-specific binding counts are subtracted from each well and data is normalized to the maximum specific binding set at 100%. To calculate an IC50 the curve is fitted using a non-linear regression model (XLfit) and the Ki is calculated using the Cheng-Prussoff equation.
For `Cc1noc([C@H]2CC[C@H](c3nnc4n3-c3ccc(Cl)cc3CN(C(=O)OC(C)(C)C)C4)CC2)n1` [Example 66, trans-8-Chloro-1-[4-(3-methyl-[1,2,4]oxadiazol-5-yl)-cyclohexyl]-4H,6H-2,3,5,10b-tetraaza-benzo[e]azulene-5-carboxylic acid tert-butyl ester], the Ki is 2.88 nM.
To `Cc1nc([C@H]2CC[C@H](c3nnc4n3-c3ccc(Cl)cc3CN(C)C4)CC2)sc1C` [Example 106, trans-8-Chloro-1-[4-(4,5-dimethyl-thiazol-2-yl)-cyclohexyl]-5-methyl-5,6-dihydro-4H-2,3,5,10b-tetraaza-benzo[e]azulene] belongs 2.29 nM; to `Clc1ccc2c(c1)CNCc1nnc([C@H]3CC[C@H](c4onc5c4CCCC5)CC3)n1-2` [Example 61, trans-8-Chloro-1-[4-(4,5,6,7-tetrahydro-benzo[c]isoxazol-3-yl)-cyclohexyl]-5,6-dihydro-4H-2,3,5,10b-tetraaza-benzo[e]azulene], 30.2 nM; to `Cc1onc([C@H]2CC[C@H](c3nnc4n3-c3ccc(Cl)cc3CN(C(=O)OC(C)(C)C)C4)CC2)c1F` [Example 45, trans-8-Chloro-1-[4-(4-fluoro-5-methyl-isoxazol-3-yl)-cyclohexyl]-4H,6H-2,3,5,10b-tetraaza-benzo[e]azulene-5-carboxylic acid tert-butyl ester], 0.724 nM.
To `Clc1ccc2c(c1)CNCc1nnc([C@H]3CC[C@@H](n4cccn4)CC3)n1-2` [Example 113, cis-8-Chloro-1-(4-pyrazol-1-yl-cyclohexyl)-5,6-dihydro-4H-2,3,5,10b-tetraaza-benzo[e]azulene] belongs 794 nM; to `Cc1nc([C@H]2CC[C@H](c3nnc4n3-c3ccc(Cl)cc3CN(CC(F)F)C4)CC2)no1` [Example 79, trans-8-Chloro-5-(2,2-difluoro-ethyl)-1-[4-(5-methyl-[1,2,4]oxadiazol-3-yl)-cyclohexyl]-5,6-dihydro-4H-2,3,5,10b-tetraaza-benzo[e]azulene], 3.39 nM.
As to `CCc1nc([C@H]2CC[C@H](c3nnc4n3-c3ccc(Cl)cc3CNC4)CC2)no1` [Example 87, trans-8-Chloro-1-[4-(5-ethyl-[1,2,4]oxadiazol-3-yl)-cyclohexyl]-5,6-dihydro-4H-2,3,5,10b-tetraaza-benzo[e]azulene hydrochloride], the Ki was 145 nM.
`Cc1nc([C@H]2CC[C@H](c3nnc4n3-c3ccc(Cl)cc3CN(C3CCCC3)C4)CC2)no1` [Example 78, trans-8-Chloro-5-cyclopentyl-1-[4-(5-methyl-[1,2,4]oxadiazol-3-yl)-cyclohexyl]-5,6-dihydro-4H-2,3,5,10b-tetraaza-benzo[e]azulene]: the Ki was 5.89 nM.
`CC(C)(C)OC(=O)N1Cc2cc(Cl)ccc2-n2c(nnc2[C@H]2CC[C@@H](n3cccn3)CC2)C1` [Example 112, cis-8-Chloro-1-(4-pyrazol-1-yl-cyclohexyl)-4H,6H-2,3,5,10b-tetraaza-benzo[e]azulene-5-carboxylic acid tert-butyl ester]: the Ki is 75.9 nM.
In the case of `CC(C)(C)OC(=O)N1Cc2cc(Cl)ccc2-n2c(nnc2[C@H]2CC[C@H](c3ncco3)CC2)C1` [Example 1, trans-8-Chloro-1-(4-oxazol-2-yl-cyclohexyl)-4H,6H-2,3,5,10b-tetraaza-benzo[e]azulene-5-carboxylic acid tert-butyl ester], the Ki is 1 nM.
As to `Cc1cnc([C@H]2CC[C@H](c3nnc4n3-c3ccc(Cl)cc3CNC4)CC2)o1` [Example 8, trans-8-Chloro-1-[4-(5-methyl-oxazol-2-yl)-cyclohexyl]-5,6-dihydro-4H-2,3,5,10b-tetraaza-benzo[e]azulene], the Ki was 18.6 nM.
With `CCc1nc([C@H]2CC[C@H](c3nnc4n3-c3ccc(Cl)cc3CN(C)C4)CC2)no1` [Example 88], the Ki was 14.5 nM.
